{"source": "paper PMC7998669", "about": "“7-(2-Anilinopyrimidin-4-yl)-1-benzazepin-2-ones Designed by a “Cut and Glue” Strategy Are Dual Aurora A/VEGF-R Kinase Inhibitors” (Molecules, 2021)", "test_system": "COLO 205", "assay": "NCI cancer cell line screen (sulforhodamin B)", "type": "cell-based", "settings": "Homo sapiens; COLO 205, Colon; 48 h; read-out: log10 GI50 (converted)", "procedure": "The new dual Aurora A/VEGF-R inhibitors 2e and 2n were selected by the National Cancer Institute for screening in its broad cancer cell line panel. The NCI in vitro assay is performed by incubation of cells with test compounds for 48 h and subsequent cell fixation with trichloroacetic acid. The pink dye sulforhodamin B is added, which binds to the proteins of the fixed cells. After washing and solubilizing the bound stain, the optical density is measured spectrophotometrically to determine the relative proliferation of treated and untreated cells.\nSimultaneous inhibition of the Aurora A kinase and the VEGF-R2/3 receptor kinases may represent an interesting dual activity for the treatment of cancer. The National Cancer Institute selected the compounds 2e and 2n as representatives with particularly high inhibitory activity on the above kinases for testing in the IVCLS (in vitro cell line screening). In this screening, compounds are tested for antiproliferative activity on about 60 in vitro cultivated tumor cell lines. Based on this very broad screening on cell lines from nine tumor entities the general antiproliferative potency of compounds is determined. In addition, the bioinformatic tool COMPARE allowed one to draw conclusions on the molecular target of the compounds from the activity patterns on the different cell lines. Similar molecular mechanisms of action of two compounds are assumed if a Pearson correlation coefficient (PCC) of > 0.6 is calculated by COMPARE [52, 53]. […] The selectivity profile of the two compounds is not very pronounced given the overall very similar proliferation inhibition values across all cell lines. A COMPARE analysis determined a PCC = 0.61 for the patterns of test compounds 2e and 2n, which is consistent with an analogous mechanism of action. However, whether this mechanism is actually based on the inhibition of the inhibited Aurora kinases and VEGF receptor kinases cannot be deduced from these profiles."}
{"smiles": "COc1ccc(Nc2nccc(-c3ccc4c(c3)CCCC(=O)N4)n2)cc1O", "note": "[Compound 2n, 7-[2-(3-Hydroxy-4-methoxyanilino)pyrimidin-4-yl]-1,3,4,5-tetrahydro-2H-1-benzazepin-2-one]", "values": [{"measurement": "GI50", "value": 26.3, "unit": "µM"}]}
